# Counter-ions that a name gives are not always drawn.
# System: Acinetobacter baumannii ATCC17978
# Assay: Antimicrobial susceptibility testing: 90% growth inhibitory concentration (IC90) determination, Iso-Sensitest broth
# Format: cell-based
# Conditions: 90% growth inhibitory concentration, Acinetobacter baumannii ATCC17978, Iso-Sensitest broth; read-out: ATCC 17978 IC90
# Method in brief: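 Twofold serial dilutions (e.g. 10 to 0.02 μM final) were tested in Iso-Sensitest broth against ~5×10^(5) CFU/ml at 35±2 °C. OD600 was read every 20 min over 16 h. IC90 was derived from growth inhibition during the logarithmic phase.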
row,IC90,SMILES
1,50 nM,"Cn1c(-c2ccc(OCC#N)c(F)c2F)cnc1C(=O)Nc1ccc(C(=O)N2CCN(C(=O)[C@@H]3C[C@H](O)CN3)CC2)c(Cl)c1 [Example 201, N-(3-chloro-4-(4-((2S,4S)-4-hydroxypyrrolidine-2-carbonyl)piperazine-1-carbonyl)phenyl)-5-(4-(cyanomethoxy)-2,3-difluorophenyl)-1-methyl-1H-imidazole-2-carboxamide formate]"
2,90 nM,"Cn1c(-c2ccc(OCC#N)c(F)c2F)cnc1C(=O)Nc1ccc(C(=O)N2CCN(C(=O)[C@@H]3C[C@@H](O)CN3)CC2)c(Cl)c1 [Example 202, N-(3-chloro-4-(4-((2S,4R)-4-hydroxypyrrolidine-2-carbonyl)piperazine-1-carbonyl)phenyl)-5-(4-(cyanomethoxy)-2,3-difluorophenyl)-1-methyl-1H-imidazole-2-carboxamide 2,2,2-trifluoroacetate]"
3,40 nM,"CN(C)CC(=O)N1CCN(C(=O)c2ccc(NC(=O)c3ncc(-c4ccc(OCC#N)c(F)c4F)n3C)cc2Cl)CC1 [Example 204, N-(3-chloro-4-(4-(dimethylglycyl)piperazine-1-carbonyl)phenyl)-5-(4-(cyanomethoxy)-2,3-difluorophenyl)-1-methyl-1H-imidazole-2-carboxamide formate]"
4,60 nM,"CNCC(=O)N1CCN(C(=O)c2ccc(NC(=O)c3ncc(-c4ccc(OCC#N)c(F)c4F)n3C)cc2Cl)CC1 [Example 205, N-(3-chloro-4-(4-(methylglycyl)piperazine-1-carbonyl)phenyl)-5-(4-(cyanomethoxy)-2,3-difluorophenyl)-1-methyl-1H-imidazole-2-carboxamide formate]"
5,50 nM,"Cn1c(-c2ccc(OCC#N)c(F)c2F)cnc1C(=O)Nc1ccc(C(=O)N2CCN(C(=O)C3(O)CCNCC3)CC2)c(Cl)c1 [Example 207, N-(3-chloro-4-(4-(4-hydroxypiperidine-4-carbonyl)piperazine-1-carbonyl)phenyl)-5-(4-(cyanomethoxy)-2,3-difluorophenyl)-1-methyl-1H-imidazole-2-carboxamide 2,2,2-trifluoroacetate]"

# The remaining lines, values behind:
row,SMILES,IC90
1,"Cc1cc(NC(=O)c2ncc(-c3ccc(OCC#N)c(F)c3F)n2C)ccc1C(=O)N1CCN(C(=O)[C@@H]2CCNC2)CC1 [Example 203, (R)-5-(4-(cyanomethoxy)-2,3-difluorophenyl)-1-methyl-N-(3-methyl-4-(4-(pyrrolidine-3-carbonyl)piperazine-1-carbonyl)phenyl)-1H-imidazole-2-carboxamide 2,2,2-trifluoroacetate]",90 nM
2,"CNCC(=O)N1CCN(C(=O)c2ccc(NC(=O)c3ncc(-c4ccc(OCC#N)c(F)c4F)n3C)cc2C)CC1 [Example 206, 5-(4-(cyanomethoxy)-2,3-difluorophenyl)-1-methyl-N-(3-methyl-4-(4-(methylglycyl)piperazine-1-carbonyl)phenyl)-1H-imidazole-2-carboxamide 2,2,2-trifluoroacetate]",100 nM
3,"CN(C)CCN1CCN(C(=O)c2ccc(NC(=O)c3ncc(-c4ccc(OCC#N)c(F)c4Cl)n3C)cc2Cl)CC1 [Example 270, 5-[2-chloro-4-(cyanomethoxy)-3-fluoro-phenyl]-N-[3-chloro-4-[4-[2-(dimethylamino)ethyl]piperazine-1-carbonyl]phenyl]-1-methyl-imidazole-2-carboxamide]",50 nM
4,"COc1ccc(-c2cnc(C(=O)Nc3ccc(C(=O)N4CCN(CCN(C)C)CC4)c(Cl)c3)n2C)cc1F [Example 274, N-[3-chloro-4-[4-[2-(dimethylamino)ethyl]piperazine-1-carbonyl]phenyl]-5-(3-fluoro-4-methoxy-phenyl)-1-methyl-imidazole-2-carboxamide formate]",290 nM
5,"CCc1cc(NC(=O)c2ncc(-c3ccc(OC(F)F)cc3)n2C)ccc1C(=O)N1CCN(CCN(C)C)CC1 [Example 275, 5-[4-(difluoromethoxy)phen-yl]-N-[4-[4-[2-(dimethylamino)ethyl]piperazine-1-carbonyl]-3-ethyl-phenyl]-1-methyl-imidazole-2-carboxamide]",1520 nM
6,"CCc1cc(NC(=O)c2ncc(-c3ccc(OC(C)C)c(F)c3)n2C)ccc1C(=O)N1CCN(CCN(C)C)CC1 [Example 276, N-(4-(4-(2-(dimethylamino)ethyl)piperazine-1-carbonyl)-3-ethylphenyl)-5-(3-fluoro-4-isopropoxyphenyl)-1-methyl-1H-imidazole-2-carboxamide]",4020 nM
7,"CCc1cc(NC(=O)c2ncc(-c3ccc(OC)cc3Cl)n2C)ccc1C(=O)N1CCN(CCN(C)C)CC1 [Example 277, 5-(2-chloro-4-methoxyphenyl)-N-(4-(4-(2-(dimethylamino)ethyl)piperazine-1-carbonyl)-3-ethylphenyl)-1-methyl-1H-imidazole-2-carboxamide]",2300 nM
8,"COc1ccc(-c2cnc(C(=O)Nc3ccc(C(=O)N4CCN(CCN(C)C)CC4)c(Cl)c3)n2C)c(F)c1F [Example 278, N-[3-chloro-4-[4-[2-(dimethylamino)ethyl]piperazine-1-carbonyl]phenyl]-5-(2,3-difluoro-4-methoxy-phenyl)-1-methyl-imidazole-2-carboxamide formate]",80 nM

# Same assay, conditions: Acinetobacter baumannii, ATCC17978, read-out: ATCC 17978 IC90
row,SMILES,IC90
1,"Cn1c(-c2ccc(OCC#N)c(F)c2F)cnc1C(=O)Nc1ccc(C(=O)N2CCN(C(=O)[C@H]3CCNC3)CC2)c(Cl)c1 [Example 200, (S)-N-(3-chloro-4-(4-(pyrrolidine-3-carbonyl)piperazine-1-carbonyl)phenyl)-5-(4-(cyanomethoxy)-2,3-difluorophenyl)-1-methyl 1H-imidazole-2-carboxamide 2,2,2-trifluoroacetate]",50 nM
2,"CN(C)CCN1CCN(C(=O)c2ccc(NC(=O)c3ncc(-c4ccc(OCC#N)c(Cl)c4)n3C)cc2Cl)CC1 [Example 269, 5-[3-Chloro-4-(cyanomethoxy)phenyl]-N-[3-chloro-4-[4-[2-(dimethylamino)ethyl]piperazine-1-carbonyl]phenyl]-1-methyl-imidazole-2-carboxamide trifluoroacetate]",70 nM

# Reference: patent US20220396565A1 (Hoffmann-La Roche Inc., priority 2020, published 2022)
